These results are taken from patent publication US20240287108A1, “nSMASE2 INHIBITOR PRODRUGS WITH ENHANCED ORAL AND BRAIN EXPOSURES” (The Johns Hopkins University, priority 2021, published 2024).

Data set [1] in a line: in vitro stability in CES1−/− mouse brain homogenates. It is filed as in vitro ADME. The note with it: CES1−/− mouse brain homogenate, 10 μM, 37° C. As to the method: All synthesized prodrugs were next screened for in vitro stability in carboxylesterase 1 knockout (CES1^−/−) mouse plasma, as well as CES1^−/− mouse brain and liver homogenates (Table 2-1). We have previously reported that CES1^−/− mouse model recapitulates human prodrug metabolism.
For the tissue homogenates, washed tissues were diluted 10-fold in 0.1 M potassium phosphate buffer and homogenized using a probe sonicator. To evaluate the stability of the intact prodrug over time, each of the crude homogenates and plasma were aliquoted to 1 mL and then spiked with a final assay concentration of 10 μM of each prodrug followed by incubation in an orbital shaker at 37° C. for 1 h (in triplicate). Sample from each incubation at predetermined time points (0 min, and 1 h) was quenched with three volumes of acetonitrile containing the internal standard (IS; losartan: 0.5 μm). Samples were vortex-mixed for 30 secs and centrifuged at 10,000×g for 10 min at 4° C. Disappearance of intact prodrugs from these samples were performed on a Dionex ultra-high-performance LC system coupled with Q Exactive Focus orbitrap mass spectrometer (Thermo Fisher Scientific Inc., Waltham MA). […] The mobile phase consisted of 0.1% formic acid in water and 0.1% formic acid in acetonitrile. Pumps were operated at a flow rate of 0.4 mL/min for 9 min using gradient elution. The mass spectrometer controlled by Xcalibur software 4.0.27.13 (Thermo Scientific) was operated with a heated electrospray ionization (HESI) ion source in positive ionization mode. Quantification of the prodrugs were performed in the full-scan mode (from m/z 50 to 1600) by comparing t=0 samples with t=60 min samples.

The next data set addresses T1, nSMase2 (Mus musculus, UniProt Q9JJY3).
T1 construct: the striata dissected and analyzed for nSMase2 activity using a modification of previously published protocols; from tissue; host or cells: striata of GFAP-EGFP transgenic mice, homogenised and sonicated lysate
T1 sequence (Q9JJY3 1-655): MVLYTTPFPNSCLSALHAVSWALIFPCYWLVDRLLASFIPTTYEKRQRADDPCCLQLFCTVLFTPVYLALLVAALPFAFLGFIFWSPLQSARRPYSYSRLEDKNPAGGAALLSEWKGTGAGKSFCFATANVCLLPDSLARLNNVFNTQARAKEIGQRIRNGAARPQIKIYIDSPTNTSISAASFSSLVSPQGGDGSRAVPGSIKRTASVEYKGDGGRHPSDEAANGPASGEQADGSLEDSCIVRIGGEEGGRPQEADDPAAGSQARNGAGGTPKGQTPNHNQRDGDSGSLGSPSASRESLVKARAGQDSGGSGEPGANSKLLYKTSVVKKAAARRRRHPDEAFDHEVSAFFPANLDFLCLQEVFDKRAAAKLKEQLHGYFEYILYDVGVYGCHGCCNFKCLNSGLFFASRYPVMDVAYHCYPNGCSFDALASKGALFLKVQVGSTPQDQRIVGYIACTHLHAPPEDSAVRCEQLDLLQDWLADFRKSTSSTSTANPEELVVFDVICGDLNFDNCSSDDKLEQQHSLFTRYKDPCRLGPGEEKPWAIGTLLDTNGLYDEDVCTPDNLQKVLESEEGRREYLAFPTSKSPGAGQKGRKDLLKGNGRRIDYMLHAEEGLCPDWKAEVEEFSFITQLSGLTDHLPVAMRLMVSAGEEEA
As to the kind of experiment: nSMase2 activity in striata of IL-1β-injected mice. It counts as in vivo. The settings on record: P18 3 and 10 mg/kg DPTIP equivalent PO 30 min before intrastriatal IL-1β; 4 h. The source says:
We have previously reported that nSMase2 regulates the secretion of extracellular vesicles from astrocytes in response to a focal inflammatory brain lesion. Rojas et al., 2018. Striatal injection of IL-1β in mice expressing GFAP-EGFP in astroglia evokes the release of GFP-labelled EVs that rapidly enter into plasma and target multiple organ systems. Dickens et al., 2017. We used this mouse model to evaluate the ability of P18 to inhibit EV release by the inhibition of nSMase2 activity in vivo. […] Interleukin-1β-injected mice, orally pre-dosed with P18 (30 min prior) were euthanized 4-hours post-IL-1β injection. GFP labeled (GFP+) EVs were quantified in plasma and nSMase2 activity was measured in the brain striata.
Rojas et al., 2018; Figuera-Losada et al., 2015. Briefly, mice striata were homogenized in ice-cold Tris-HCl buffer (0.1 M, pH 7.5) containing 250 mM sucrose, 10 mM EGTA (Research Products International, Prospect, IL), 100 μM sodium molybdate and protease inhibitors (Cell Signaling, Danvers, MA) using Biomasher II and then sonicated using Kontes' Micro Ultrasonic Cell Disrupter (three pulses of 15 s duration on ice with 30 s between pulses). […] At the end of the reaction period, the relative fluorescence units were measured at Ex 530 nm, Em 590 nm. […]

The nature of data set [2]: solubility of P18 in water and in Soluplus®/Labrasol® micelle formulation. It counts as physicochemical. The source says:
In contrast, the solubility of the prodrugs, e.g., P18 in the micelle formulation were improved as presented below.

SMILES strings stand for the structures. Values after ≈ are worked out from the molar mass of the structure shown. “Also recorded” adds a separate entry of the source. Like-named read-outs stand apart in the source and are kept apart here. Bounds are passed on as bounds.

As for `CCC1CC(N2CCCCC2)CC(CC)N1C(=O)Oc1c(OC)cc(-c2nc(-c3ccccc3)c(-c3cccs3)[nH]2)cc1OC` (centres unmarked) [Compound P18, 2,6-Dimethoxy-4-(5-phenyl-4-(thiophen-2-yl)-1H-imidazol-2-yl)phenyl 2′,6′-diethyl-[1,4′-bipiperidine]-1′-carboxylate], the “Stability in mouse (% remaining at 1h) Mean + Std Error, Brain” value in data set [1] is 100 ± 1%. For the same compound, at nSMase2, the “nSMase2 activity in brain striata” value is reported as “attenuated nSMase2 activity; also recorded: inhibition of brain nSMase2 activity; also recorded: reduced nSMase2 activity increased in response to IL-1β in a dose dependent manner; also recorded: significant inhibition of nSMase2 activity”. Further, the solubility in data set [2] (Labrasol micelles in water, aqueous with cosolvent or surfactant or cyclodextrin, solid dispersion in Labrasol®, hydrated with water, read-out: solubility in micelle formulation) was 1700 µg/mL (≈ 2700 µM); in data set [2] (Soluplus micelles in water, aqueous with cosolvent or surfactant or cyclodextrin, solid dispersion in Soluplus®, hydrated with water, read-out: solubility in micelle formulation), 1700 µg/mL (≈ 2700 µM); in data set [2] (water, read-out: solubility in water), < 500 µg/mL.
